US12098148B2, “Therapeutic compounds” (C4X Discovery Limited, priority 2018, dated 2024)

Experiments:
[1] = tested on: NQO1 mRNA in BEAS-2B cells; assay: Beas2B NQO1 mRNA cell based assay; design: species or system human; conditions: Homo sapiens, BEAS-2B, 24 h, 24 h compound treatment, increase in NQO1 mRNA vs vehicle (0.1% DMSO), read-out: EC50
How it was run: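 BEAS-2B human bronchial epithelial cells exposed to compound for 24 h at 37 °C, 5% CO2. NQO1 mRNA measured by one-step TaqMan RT-qPCR on unpurified lysates, normalized to β-actin; relative expression by ΔΔCT method.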

[2] = target: human KEAP1 (N-term, residues 321-609) (Homo sapiens, UniProt Q14145); assay: biochemical;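 also: fluorescence polarization competition assay of Kelch domain binding to NRF2, 12-point 1:3 dilution series from 10 µM, read after 1 h at room temperature, floor 10 nM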
Chain of human KEAP1 (N-term, residues 321-609) (Q14145 321-609): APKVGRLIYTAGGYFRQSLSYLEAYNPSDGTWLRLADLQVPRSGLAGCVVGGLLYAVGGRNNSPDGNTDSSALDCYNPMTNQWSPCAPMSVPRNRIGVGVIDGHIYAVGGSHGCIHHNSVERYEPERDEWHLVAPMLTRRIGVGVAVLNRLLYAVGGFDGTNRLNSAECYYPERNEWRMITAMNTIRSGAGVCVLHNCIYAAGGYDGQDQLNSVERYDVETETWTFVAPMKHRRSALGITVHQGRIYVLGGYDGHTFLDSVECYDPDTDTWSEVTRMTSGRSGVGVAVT

Row | Structure (SMILES) | EC50 [1] [nM] | IC50 [2] [nM]
1 | Cc1c(COc2ccc(Cl)c3c2[C@@H](CN2CC4(CC4)CC2=O)N(C(=O)[C@@H]2CCCC[C@]2(C)C(=O)O)CC3)nnn1C [Example 156, (1S,2R)-2-((S)-5-chloro-8-((1,5-dimethyl-1H-1,2,3-triazol-4-yl)methoxy)-1-((6-oxo-5-azaspiro[2.4]heptan-5-yl)methyl)-1,2,3,4-tetrahydroisoquinoline-2-carbonyl)-1-methylcyclohexane-1-carboxylic acid] | 0.29 | 5.1
2 | Cc1onc(COc2ccc(Cl)c3c2[C@@H](CN2CC4(CC4)CC2=O)N(C(=O)[C@@H]2CCCC[C@]2(C)C(=O)O)CC3)c1C(F)F [Example 157, (1S,2R)-2-((S)-5-chloro-8-((4-(difluoromethyl)-5-methylisoxazol-3-yl)methoxy)-1-((6-oxo-5-azaspiro [2.4]heptan-5-yl)methyl)-1,2,3,4-tetrahydroisoquinoline-2-carbonyl)-1-methylcyclohexane-1-carboxylic acid] | 4.9 | 5.9
3 | Cn1cc(COc2ccc(Cl)c3c2[C@@H](CN2CC4(CC4)CC2=O)N(C(=O)[C@@H]2CCCC[C@]2(C)C(=O)O)CC3)nn1 [Example 158, (1S,2R)-2-((S)-5-chloro-8-((1-methyl-1H-1,2,3-triazol-4-yl)methoxy)-1-((6-oxo-5-azaspiro[2.4]heptan-5-yl)methyl)-1,2,3,4-tetrahydroisoquinoline-2-carbonyl)-1-methylcyclohexane-1-carboxylic acid] | 1.2 | 6.3
4 | Cn1nnc(COc2ccc(Cl)c3c2[C@@H](CN2CC4(CC4)CC2=O)N(C(=O)[C@@H]2CCCC[C@]2(C)C(=O)O)CC3)c1C1CC1 [Example 159, (1S,2R)-2-((S)-5-chloro-8-((5-cyclopropyl-1-methyl-1H-1,2,3-triazol-4-yl)methoxy)-1-((6-oxo-5-azaspiro[2.4]heptan-5-yl)methyl)-1,2,3,4-tetrahydroisoquinoline-2-carbonyl)-1-methylcyclohexane-1-carboxylic acid] | 0.22 | 6.7
5 | COCc1c(COc2ccc(Cl)c3c2[C@@H](CN2CC4(CC4)CC2=O)N(C(=O)[C@@H]2CCCC[C@]2(C)C(=O)O)CC3)nnn1C [Example 160, (1S,2R)-2-((S)-5-chloro-8-((5-(methoxymethyl)-1-methyl-1H-1,2,3-triazol-4-yl)methoxy)-1-((6-oxo-5-azaspiro [2.4]heptan-5-yl)methyl)-1,2,3,4-tetrahydroisoquinoline-2-carbonyl)-1-methylcyclohexane-1-carboxylic acid] | 0.72 | 5
6 | C[C@@H]1CC(=O)N(C[C@@H]2c3c(OCc4cn(C)nn4)ccc(Cl)c3CCN2C(=O)[C@@H]2CCCC[C@]2(C)C(=O)O)C1 [Example 161, (1S,2R)-2-((S)-5-chloro-8-((1-methyl-1H-1,2,3-triazol-4-yl)methoxy)-(((R)-4-methyl-2-oxopyrrolidin-1-yl)methyl)-1,2,3,4-tetrahydroisoquinoline-2-carbonyl)-1-methylcyclohexane-1-carboxylic acid] | 11 | 7.9
7 | COCc1c(COc2ccc(Cl)c3c2[C@@H](CN2C[C@H](C)CC2=O)N(C(=O)[C@@H]2CCCC[C@]2(C)C(=O)O)CC3)nnn1C [Example 162, (1S,2R)-2-((S)-5-chloro-8-((5-(methoxymethyl)-1-methyl-1H-1,2,3-triazol-4-yl)methoxy)-1-(((R)-4-methyl-2-oxopyrrolidin-1-yl)methyl)-1,2,3,4-tetrahydroisoquinoline-2-carbonyl)-1-methylcyclohexane-1-carboxylic acid] | 2.4 | 6.3
8 | C[C@@H]1CC(=O)N(C[C@@H]2c3c(OCc4nnn(C)c4C4CC4)ccc(Cl)c3CCN2C(=O)[C@@H]2CCCC[C@]2(C)C(=O)O)C1 [Example 163, (1S,2R)-2-((S)-5-chloro-8-((5-cyclopropyl-1-methyl-1H-1,2,3-triazol-4-yl)methoxy)-1-(((R)-4-methyl-2-oxopyrrolidin-1-yl)methyl)-1,2,3,4-tetrahydroisoquinoline-2-carbonyl)-1-methylcyclohexane-1-carboxylic acid] | 0.78 | 5.3
9 | C[C@]1(C(=O)O)CCCC[C@H]1C(=O)N1CCc2c(Cl)ccc(OCc3noc4c(F)cccc34)c2[C@H]1CN1CCCC1=O [Example 164, (1S,2R)-2-((S)-5-chloro-8-((7-fluorobenzo[d]isoxazol-3-yl)methoxy)-1-((2-oxopyrrolidin-1-yl)methyl)-1,2,3,4-tetrahydroisoquinoline-2-carbonyl)-1-methylcyclohexane-1-carboxylic acid] | 2.6 | 6
10 | C[C@]1(C(=O)O)CCCC[C@H]1C(=O)N1CCc2c(Cl)ccc(OCc3noc4c(F)c(F)ccc34)c2[C@H]1CN1CCCC1=O [Example 165, (1S,2R)-2-((S)-5-chloro-8-((6,7-difluorobenzo[d]isoxazol-3-yl)methoxy)-1-((2-oxopyrrolidin-1-yl)methyl)-1,2,3,4-tetrahydroisoquinoline-2-carbonyl)-1-methylcyclohexane-1-carboxylic acid] | 11 | 8.4
11 | Cc1cc(COc2ccc(Cl)c3c2[C@@H](CN2CCCC2=O)N(C(=O)[C@@H]2CCCC[C@]2(C)C(=O)O)CC3)no1 [Example 166, (1S,2R)-2-((S)-5-chloro-8-((5-methylisoxazol-3-yl)methoxy)-1-((2-oxopyrrolidin-1-yl)methyl)-1,2,3,4-tetrahydroisoquinoline-2-carbonyl)-1-methylcyclohexane-1-carboxylic acid] | 40 | 7.5
12 | Cc1noc(COc2ccc(Cl)c3c2[C@@H](CN2CCCC2=O)N(C(=O)[C@@H]2CCCC[C@]2(C)C(=O)O)CC3)n1 [Example 167, (1S,2R)-2-((S)-5-chloro-8-((3-methyl-1,2,4-oxadiazol-5-yl)methoxy)-1-((2-oxopyrrolidin-1-yl)methyl)-1,2,3,4-tetrahydroisoquinoline-2-carbonyl)-1-methylcyclohexane-1-carboxylic acid] | 280 | 16
13 | Cc1nc(COc2ccc(Cl)c3c2[C@@H](CN2CCCC2=O)N(C(=O)[C@@H]2CCCC[C@]2(C)C(=O)O)CC3)no1 [Example 168, (1S,2R)-2-((S)-5-chloro-8-((5-methyl-1,2,4-oxadiazol-3-yl)methoxy)-1-((2-oxopyrrolidin-1-yl)methyl)-1,2,3,4-tetrahydroisoquinoline-2-carbonyl)-1-methylcyclohexane-1-carboxylic acid] | 85 | 8.5
14 | Cn1nnc(COc2ccc(Cl)c3c2[C@@H](CN2CCCC2=O)N(C(=O)[C@H]2CCCC[C@]2(C)C(=O)O)CC3)c1C(F)(F)F [Example 169, (1S,2S)-2-((S)-5-chloro-8-((1-methyl-5-(trifluoromethyl)-1H-1,2,3-triazol-4-yl)methoxy)-1-((2-oxopyrrolidin-1-yl)methyl)-1,2,3,4-tetrahydroisoquinoline-2-carbonyl)-1-methylcyclohexane-1-carboxylic acid] | 140 | 62
15 | C[C@]1(C(=O)O)CCCC[C@H]1C(=O)N1CCc2c(Cl)ccc(OCc3nnn4c3CCCC4)c2[C@H]1CN1CC2(CC2)CC1=O [Example 170, (1S,2R)-2-((S)-5-chloro-1-((6-oxo-5-azaspiro[2.4]heptan-5-yl)methyl)-8-((4,5,6,7-tetrahydro-[1,2,3]triazolo[1,5-a]pyridin-3-yl)methoxy)-1,2,3,4-tetrahydroisoquinoline-2-carbonyl)-1-methylcyclohexane-1-carboxylic acid] | 0.11 | 6.6
16 | C[C@]1(C(=O)O)CCCC[C@H]1C(=O)N1CCc2c(Cl)ccc(OCc3cncnc3C(F)(F)F)c2[C@H]1CN1CC2(CC2)CC1=O [Example 171, (1S,2R)-2-((S)-5-chloro-1-((6-oxo-5-azaspiro[2.4]heptan-5-yl)methyl)-8-((4-(trifluoromethyl)pyrimidin-5-yl)methoxy)-1,2,3,4-tetrahydroisoquinoline-2-carbonyl)-1-methylcyclohexane-1-carboxylic acid] | 19 | 6.4
17 | C[C@]1(C(=O)O)CCCC[C@H]1C(=O)N1CCc2c(Cl)ccc(OCc3nnn(C4CC4)c3C(F)F)c2[C@H]1CN1CC2(CC2)CC1=O [Example 172, (1S,2R)-2-((S)-5-chloro-8-((1-cyclopropyl-5-(difluoromethyl)-1H-1,2,3-triazol-4-yl)methoxy)-1-((6-oxo-5-azaspiro [2.4]heptan-5-yl)methyl)-1,2,3,4-tetrahydroisoquinoline-2-carbonyl)-1-methylcyclohexane-1-carboxylic acid] | 1.1 | 6
18 | CN(C)CCn1cc(COc2ccc(Cl)c3c2[C@@H](CN2CC4(CC4)CC2=O)N(C(=O)[C@@H]2CCCC[C@]2(C)C(=O)O)CC3)nn1 [Example 173, (1S,2R)-2-((S)-5-chloro-8-((1-(2-(dimethylamino)ethyl)-1H-1,2,3-triazol-4-yl)methoxy)-1-((6-oxo-5-azaspiro[2.4]heptan-5-yl)methyl)-1,2,3,4-tetrahydroisoquinoline-2-carbonyl)-1-methylcyclohexane-1-carboxylic acid] | 35 | 6.5
19 | Cc1ccc(OCc2nnn(C)c2C(F)(F)F)c2c1CCN(C(=O)[C@@H]1CCCC[C@]1(C)C(=O)O)[C@@H]2CN1CCCC1=O [Example 174, (1S,2R)-1-Methyl-2-((S)-5-methyl-8-((1-methyl-5-(trifluoromethyl)-1H-1,2,3-triazol-4-yl)methoxy)-1-((2-oxopyrrolidin-1-yl)methyl)-1,2,3,4-tetrahydroisoquinoline-2-carbonyl)cyclohexane-1-carboxylic acid] | 6.6 | 11
